# Values quoted from earlier work, collected in patent US7368441B2, “Method of increasing intracellular concentrations of phosphate and increasing the force of muscular contractions” (Aplodan Formulations Ltd., priority 2006, dated 2008).
# Read-outs that look alike come from different tables or passages of the source.
# What was measured:
# [1] = elderly subjects
# [2] = unaffected in placebo group
# [3] = patients with inadequate coronary blood flow
# [4] = alkaline and acidic solutions
# [5] = in vivo
# [6] = clinical trials
# [7] = in vitro
# [8] = administration in humans
# [9] = oral administration, test animals, at 48 hours
smiles,measurement,setting,value
CN(CCOP(=O)(O)O)C(=N)N [2-(carbamimidoyl-methyl-amino)ethoxyphosphonic acid],muscular performance,[1],improved muscular performance
same,14C radio-labeled compound found in skeletal muscle,"Guinea-Pig, intravenous, intramuscular and oral administration",Significant amounts
same,duration of more constant level in the body following administration,oral administration,about 15 hours
same,time after which level in the body begins to decrease,oral administration,33 h
same,hand strength,[2],improved
same,cardiac parameters,[3],improve cardiac parameters
same,stability in solution,[4],stable in both alkaline and acidic solutions
same,tolerability / side effects,[5],well tolerated and without side effects
same,muscle development and capacity to perform physical activity,[6],improve muscle development and increase the capacity to perform physical activity
same,dephosphorylation to creatine,[7]; blood and muscle,less so
same,dephosphorylation to creatine,"[7]; kidney, intestine and liver",dephosphorylated to creatine to some degree
same,urine levels of creatinine,[8],increases urine levels of creatinine
same,absorption by the intestine,[9],about 60%
